From ChEMBL document CHEMBL3881526, “Selective androgen receptor modulators and method of use thereof” (2007)
Active and inactive are the calls of the source. No cut-off for these calls is given here.

How the values were obtained:
[1] = Oral bioavailability in beagle dog at 10 mg/kg administered via capsule after 72 hrs by HPLC analysis; assay type: ADME, organism-based, Canis lupus familiaris; conditions: in vivo
Rattus norvegicus [2] = assay: Androgenic activity in ORX Sprague-Dawley rat assessed as restoration of seminal vesicles weight at 1000 ug/day delivered at constant rate for 14 days via subcutaneous osmotic pumps; assay type: functional, tissue-based
Rattus norvegicus [3] = assay: Androgenic activity in ORX Sprague-Dawley rat assessed as restoration of prostate weight at 1000 ug/day delivered at constant rate for 14 days via subcutaneous osmotic pumps; assay type: functional, tissue-based
Rattus norvegicus [4] = assay: Anabolic activity in ORX Sprague-Dawley rat assessed as restoration of levator ani muscle weight at 1000 ug/day delivered at constant rate for 14 days via subcutaneous osmotic pumps; assay type: functional, tissue-based
[5] = Plasma clearance in beagle dog at 3 mg/kg, iv after 72 hrs by HPLC analysis; assay type: ADME, organism-based, Canis lupus familiaris
Rattus norvegicus [6] = assay: Effect on serum LH in ORX Sprague-Dawley rat at 0.3 mg/day delivered at constant rate for 14 days via subcutaneous osmotic pumps; assay type: ADME; conditions: sc, 336 h
[7] = Oral bioavailability in beagle dog at 10 mg/kg administered via solution after 72 hrs by HPLC analysis; assay type: ADME, organism-based, Canis lupus familiaris; conditions: in vivo
Rattus norvegicus [8] = assay: Androgenic activity in ORX Sprague-Dawley rat assessed as restoration of prostate weight at 0.1 to 1 ug/day delivered at constant rate for 14 days via subcutaneous osmotic pumps; assay type: functional
Rattus norvegicus [9] = assay: Anabolic activity in ORX Sprague-Dawley rat assessed as restoration of levator ani muscle weight at 0.1 to 1 ug/day delivered at constant rate for 14 days via subcutaneous osmotic pumps; assay type: functional
[10] = Terminal half life in beagle dog at 3 mg/kg, iv after 72 hrs by HPLC analysis; assay type: ADME, organism-based, Canis lupus familiaris; conditions: in vivo, read-out: beta t1/2 (converted)
Rattus norvegicus [11] = assay: Effect on serum FSH in ORX Sprague-Dawley rat at 0.3 mg/day delivered at constant rate for 14 days via subcutaneous osmotic pumps; assay type: ADME; conditions: sc, 336 h
Rattus norvegicus [12] = assay: Androgenic activity in ORX Sprague-Dawley rat assessed as restoration of seminal vesicles weight at 0.1 to 1 ug/day delivered at constant rate for 14 days via subcutaneous osmotic pumps; assay type: functional
Rattus norvegicus [13] = species: Rattus norvegicus; assay: Effect on serum FSH in intact Sprague-Dawley rat at 0.75 mg/day measured for 14 days (reference value: 6.40 +/- 1.58 ng/ml); assay type: functional
Homo sapiens [14] = assay: Effect on lean weight level in healthy human at 3 mg administered daily via mouth for 14 days (reference value: 436.47 g); assay type: functional
Homo sapiens [15] = assay: Effect on regional fat level in healthy human at 3 mg administered daily via mouth for 14 days (reference value: 0.64%); assay type: functional
Homo sapiens [16] = assay: Effect on fat weight in healthy human at 1 mg administered daily via mouth for 14 days (reference value: 436 g); assay type: functional
Homo sapiens [17] = assay: Effect on tissue fat level in truncal obese human at 30 mg administered daily via mouth for 14 days (reference value: 0.69%); assay type: functional, Adipose tissue
Rattus norvegicus [18] = assay: Effect on serum LH in ORX Sprague-Dawley rat at 0.75 mg/day administered 9 days post ORX via oral gavage for 14 days (reference value: 9.66 +/- 1.13 ng/ml); assay type: functional
Rattus norvegicus [19] = assay: Reduction in serum cholesterol in female Sprague-Dawley rat at 100 mg/kg, po qd administered for 28 days; assay type: functional, organism-based
Homo sapiens [20] = assay: Effect on fat weight in healthy human at 3 mg administered daily via mouth for 14 days (reference value: 436 g); assay type: functional
Rattus norvegicus [21] = assay: Induction of […] bone density in OVX Sprague-Dawley rat at 3 mg/day administered daily by oral gavage measured after 45 days (reference value: 215 mg/mm'3); assay type: functional
Rattus norvegicus [22] = species: Rattus norvegicus; assay: Effect on serum FSH in intact Sprague-Dawley rat at 1 mg/day measured for 14 days (reference value: 6.40 +/- 1.58 ng/ml); assay type: functional
Rattus norvegicus [23] = assay: Anabolic activity in ORX Sprague-Dawley rat assessed as increase in levator ani muscle weight at 0.1 mg/day measured after delayed dosing administered 9 days post ORX via oral gavage for 14 days relative to intact control; assay type: functional
Homo sapiens [24] = assay: Effect on fat weight in healthy human at 10 mg administered daily via mouth for 14 days (reference value: 436 g); assay type: functional
Rattus norvegicus [25] = assay: Androgenic activity in ORX Sprague-Dawley rat assessed as restoration in seminal vesicle weight at 0.3 mg/day measured after delayed dosing administered 9 days post ORX via oral gavage for 14 days relative to intact control; assay type: functional
Rattus norvegicus [26] = assay: Increase in femoral maximum load in OVX Sprague-Dawley rat at 3 mg/day administered daily co-treated with 1 mg/day alendronate by oral gavage measured after 45 days; assay type: functional
[27] = Tmax in human plasma at 1 to 100 mg administered as PEG300-based oral solution; assay type: ADME, cell-free
Rattus norvegicus [28] = species: Rattus norvegicus; assay: Effect on serum LH in intact Sprague-Dawley rat at 1 mg/day measured for 14 days (reference value: 0.281 +/- 0.126 ng/ml); assay type: functional
Homo sapiens [29] = assay: Effect on tissue weight in healthy human at 10 mg administered daily via mouth for 14 days (reference value: -8.24 g); assay type: functional
Rattus norvegicus [30] = species: Rattus norvegicus; assay: Effect on serum LH in intact Sprague-Dawley rat at 0.75 mg/day measured for 14 days (reference value: 0.281 +/- 0.126 ng/ml); assay type: functional
[31] = Tmax in human plasma at 1 to 100 mg administered as solid oral dosage; assay type: ADME, cell-free
Homo sapiens [32] = assay: Effect on tissue weight in healthy human at 3 mg administered daily via mouth for 14 days (reference value: -8.24 g); assay type: functional
Rattus norvegicus [33] = assay: Effect on serum LH in ORX Sprague-Dawley rat at 0.3 mg/day administered 9 days post ORX via oral gavage for 14 days (reference value: 9.66 +/- 1.13 ng/ml); assay type: functional
Homo sapiens [34] = assay: Effect on tissue fat level in healthy human at 10 mg administered daily via mouth for 14 days (reference value: 0.69%); assay type: functional, Adipose tissue
Homo sapiens [35] = assay: Effect on lean weight level in truncal obese human at 30 mg administered daily via mouth for 14 days (reference value: 436.47 g); assay type: functional
Rattus norvegicus [36] = assay: Anabolic activity in ORX Sprague-Dawley rat assessed as restoration of levator ani muscle weight measured after delayed dosing administered 9 days post ORX via oral gavage for 14 days; assay type: functional
Rattus norvegicus [37] = assay: Androgenic activity in ORX Sprague-Dawley rat assessed as restoration in seminal vesicle weight at 0.01 mg/day measured after delayed dosing administered 9 days post ORX via oral gavage for 14 days relative to intact control; assay type: functional
Rattus norvegicus [38] = assay: Effect on serum FSH in ORX Sprague-Dawley rat at 0.1 mg/day administered 9 days post ORX via oral gavage for 14 days (reference value: 43.45 +/- 4.97 ng/ml); assay type: functional
[39] = Terminal half life in human at 1 to 100 mg administered as PEG300-based solution after 72 hrs; assay type: ADME; conditions: in vivo, read-out: beta t1/2
Bone marrow cell [40] = assay: Induction of differentiation of rat primary bone marrow cells toward osteoblast lineage assessed as ALP activity at 1 uM by spectrophotometric analysis; assay type: functional, cell-based
Homo sapiens [41] = assay: Effect on regional fat level in healthy human at 30 mg administered daily via mouth for 14 days (reference value: 0.64%); assay type: functional
Rattus norvegicus [42] = assay: Reduction in serum cholesterol in male Sprague-Dawley rat at 3 mg/kg, po qd administered for 28 days; assay type: functional; parameters: scale not given: the % may be the effect or the level left
Rattus norvegicus [43] = assay: Effect on serum FSH in ORX Sprague-Dawley rat at 1 mg/day administered 9 days post ORX via oral gavage for 14 days (reference value: 43.45 +/- 4.97 ng/ml); assay type: functional
Homo sapiens [44] = assay: Effect on lean weight level in truncal obese human at 3 mg administered daily via mouth for 14 days (reference value: 436.47 g); assay type: functional
Rattus norvegicus [45] = assay: Induction of […] bone density in ovary intact Sprague-Dawley rat at 3 mg/day administered daily by oral gavage measured after 45 days (reference value: 379 mg/mm'3); assay type: functional
Rattus norvegicus [46] = assay: Androgenic activity in ORX Sprague-Dawley rat assessed as increase in prostate weight at 0.01 mg/day measured after delayed dosing administered 9 days post ORX via oral gavage for 14 days relative to intact control; assay type: functional
[47] = Drug uptake in human plasma at 1 to 100 mg administered as PEG300-based solution after 72 hrs; assay type: ADME, cell-free
Rattus norvegicus [48] = assay: Androgenic activity in intact Sprague-Dawley rat assessed as increase in prostate weight at 0.01 mg/day administered via oral gavage for 14 days relative to intact control; assay type: functional
Rattus norvegicus [49] = assay: Effect on serum LH in ORX Sprague-Dawley rat at 0.01 mg/day administered 9 days post ORX via oral gavage for 14 days (reference value: 9.66 +/- 1.13 ng/ml); assay type: functional
Bone marrow cell [50] = assay: Induction of differentiation of rat primary bone marrow cells toward osteoblast lineage assessed as ALP activity at 10 nM to 100 nM by spectrophotometric analysis; assay type: functional, cell-based
Homo sapiens [51] = assay: Effect on lean weight level in healthy human at 10 mg administered daily via mouth for 14 days (reference value: 436.47 g); assay type: functional
Rattus norvegicus [52] = assay: Androgenic activity in ORX Sprague-Dawley rat assessed as increase in prostate weight at 0.3 mg/day measured after delayed dosing administered 9 days post ORX via oral gavage for 14 days relative to intact control; assay type: functional
Homo sapiens [53] = assay: Effect on regional fat level in healthy human at 1 mg administered daily via mouth for 14 days (reference value: 0.64%); assay type: functional
Rattus norvegicus [54] = assay: Effect on serum LH in ORX Sprague-Dawley rat at 1 mg/day administered 9 days post ORX via oral gavage for 14 days (reference value: 9.66 +/- 1.13 ng/ml); assay type: functional
Rattus norvegicus [55] = species: Rattus norvegicus; assay: Effect on serum LH in intact Sprague-Dawley rat at 0.3 mg/day measured for 14 days (reference value: 0.281 +/- 0.126 ng/ml); assay type: functional
Homo sapiens [56] = assay: Effect on bone mineral content in healthy human at 3 mg administered daily via mouth for 14 days (reference value: 36.47 g); assay type: functional
Rattus norvegicus [57] = assay: Androgenic activity in ORX Sprague-Dawley rat assessed as restoration in seminal vesicle weight at 1 mg/day measured after delayed dosing administered 9 days post ORX via oral gavage for 14 days relative to intact control; assay type: functional
Rattus norvegicus [58] = assay: Androgenic activity in ORX Sprague-Dawley rat assessed as increase in prostate weight at 0.75 mg/day measured after delayed dosing administered 9 days post ORX via oral gavage for 14 days relative to intact control; assay type: functional
Rattus norvegicus [59] = species: Rattus norvegicus; assay: Effect on serum LH in intact Sprague-Dawley rat at 0.1 mg/day measured for 14 days (reference value: 0.281 +/- 0.126 ng/ml); assay type: functional
Rattus norvegicus [60] = species: Rattus norvegicus; assay: Effect on serum FSH in intact Sprague-Dawley rat at 0.1 mg/day measured for 14 days (reference value: 6.40 +/- 1.58 ng/ml); assay type: functional
Rattus norvegicus [61] = assay: Androgenic activity in ORX Sprague-Dawley rat assessed as restoration of prostate weight measured after delayed dosing administered 9 days post ORX via oral gavage for 14 days; assay type: functional
Rattus norvegicus [62] = assay: Androgenic activity in ORX Sprague-Dawley rat assessed as restoration in seminal vesicle weight at 0.03 mg/day measured after delayed dosing administered 9 days post ORX via oral gavage for 14 days relative to intact control; assay type: functional

CC(=O)Nc1ccc(OC[C@](C)(O)C(=O)Nc2ccc([N+](=O)[O-])c(C(F)(F)F)c2)cc1
bioavailability [1]: 19%
Activity (Rattus norvegicus [2]): Active
Activity (Rattus norvegicus [3]): Active
Activity (Rattus norvegicus [4]): Active
clearance [5]: 4.4 mL/min/kg
Activity (Rattus norvegicus [6]): Non-Toxic
bioavailability [7]: 38%
Activity (Rattus norvegicus [8]): Dose-dependent effect
Activity (Rattus norvegicus [9]): Dose-dependent effect
half-life [10]: 4 h
Activity (Rattus norvegicus [11]): Non-Toxic
Activity (Rattus norvegicus [12]): Dose-dependent effect

CC(O)(COc1ccc(C#N)cc1)C(=O)Nc1ccc(C#N)c(C(F)(F)F)c1 (stereo not drawn)
Activity (Rattus norvegicus [13]): 4.3 ng/mL
Activity (Homo sapiens [14]): 752.11 g
Activity (Homo sapiens [15]): -0.22%
Activity (Homo sapiens [16]): 197.89 g
Activity (Homo sapiens [17]): -0.13%
Activity (Rattus norvegicus [18]): Below limit of detection
Activity (Rattus norvegicus [19]): Active
Activity (Homo sapiens [20]): -22.67 g
Activity (Rattus norvegicus [21]): 406 mg/mm3
Activity (Rattus norvegicus [22]): 4.38 ng/mL
Activity (Rattus norvegicus [23]): 103%
Activity (Homo sapiens [24]): 197.44 g
Activity (Rattus norvegicus [25]): 49%
Activity (Rattus norvegicus [26]): 207 N
Tmax [27]: 0.8 to 2.3 h
Activity (Rattus norvegicus [28]): Below limit of detection
Activity (Homo sapiens [29]): 566.22 g
Activity (Rattus norvegicus [30]): Below limit of detection
Tmax [31]: 3.2 to 3.9 h
Activity (Homo sapiens [32]): 728.89 g
Activity (Rattus norvegicus [33]): Below limit of detection
Activity (Homo sapiens [34]): 0.1%
Activity (Homo sapiens [35]): 261 g
ED50 (Rattus norvegicus [36]): 0.013 mg/kg
Activity (Rattus norvegicus [37]): 7%
Activity (Rattus norvegicus [38]): 20.69 ng/mL
half-life [39]: 19 to 22 h
Activity (Bone marrow cell [40]): Active
Activity (Homo sapiens [41]): 0.95%
Activity (Rattus norvegicus [42]): 30%
Activity (Rattus norvegicus [43]): 6.33 ng/mL
Activity (Homo sapiens [44]): 1569.44 g
Activity (Rattus norvegicus [45]): 398 mg/mm3
Activity (Rattus norvegicus [46]): 9%
Drug uptake [47]: Active
Activity (Rattus norvegicus [48]): Active
Activity (Rattus norvegicus [49]): 8.45 ng/mL
Activity (Bone marrow cell [50]): Active
Activity (Homo sapiens [51]): 368.67 g
Activity (Rattus norvegicus [52]): 50%
Activity (Homo sapiens [53]): 0.23%
Activity (Rattus norvegicus [54]): Below limit of detection
Activity (Rattus norvegicus [55]): Below limit of detection
Activity (Homo sapiens [56]): -32.22 g
Activity (Rattus norvegicus [57]): 67%
Activity (Rattus norvegicus [58]): 62%
Activity (Rattus norvegicus [59]): 0.177 ng/mL
Activity (Rattus norvegicus [60]): 6.6 ng/mL
ED50 (Rattus norvegicus [61]): 0.22 mg/kg
Emax (Rattus norvegicus [61]): 75%
Activity (Rattus norvegicus [62]): 9%
